In patent US7635663B2, “Method for thinning fruit blossoms using eugenol” (The United States of America as represented by the …, priority 2006, dated 2009):
Where two headings read alike, the source gives them in different places.

Assays:
[1] = tested on: 'Gala' on M.26 apple trees; format: in vivo, Malus domestica; details: for Fruit (no./tree) / Fruit weight (kg/tree) / Individual fruit weight: Apple 'Gala', 2005
Protocol: On Apr. […] Treatments were arranged in 4-tree plots and there were 4 blocks containing all 8 treatments. Data was collected from 2 trees per plot, so each treatment was an average of 8 trees. Data was analyzed by analysis of variance and Duncan's Multiple Range Test.

[2] = tested on: apple trees (Malus domestica 'Ace Spur Red Delicious' on M.7 rootstock); format: in vivo; details: for Flowers without wilted pistils and stamens 24 hr after application / Fruit (1 to 2 cm in diameter) one month after application / Fruit (2 to 4 cm in diameter) two months after application: Apple; for Flowers without wilted pistils and stamens 24 hr after application: of 100 flower clusters, spring 2003; for Fruit (1 to 2 cm in diameter) one month after application / Fruit (2 to 4 cm in diameter) two months after application: same 100 flower clusters, five fruit each
Protocol: Eugenol was applied to apple trees (Malus domestica ‘Ace Spur Red Delicious’ on M.7 rootstock) on 23 Apr. 2003 when “king” blossoms had been fully opened and subtending flowers were just opening. Temperatures were 18° C. under partly sunny conditions. One-hundred five-cluster groups of flowers were evaluated for damage 24 hr after application. Surviving fruit from the original clusters were counted 1 and 2 mo after application. Apples were harvested on 17 Sep. 2003 from each treated tree. Total fruit number and weight and size of individual fruit were measured.

[3] = tested on: 'Bisbee Spur Delicious' on MM.111 apple trees; test: Apple blossom thinning with eugenol and ATS, 2004; format: in vivo, Malus domestica; details: for Average fruit weight (g) / Total yield per tree (no.) / Flower burn back (% of flowers injured): Apple 'Bisbee'; for Flower burn back (% of flowers injured): April 2004
Protocol: Each tree was an experimental unit, surrounded by buffer trees, with 4 single tree replications arranged in a completely randomized design.
Four branches per tree, each with 25 flowers, were measured; two branches opposite each other were perpendicular to the drive alley and the other two branches were opposite each other and parallel to the drive alley.

[4] = tested on: peach trees (Prunus persica L. 'Redhaven' on Lovell rootstock); format: in vivo; details: for Fruit (1 to 2 cm in diameter) one month after application / Fruit (2 to 4 cm in diameter) two months after application / Flowers without wilted pistils and stamens 24 hr after application: of 100 flowers; for Flowers without wilted pistils and stamens 24 hr after application: spring 2003
Protocol: Materials and methods: Initial work determined general foliar and blossom injury response to increasing rates of eugenol in apple and peach trees. Eugenol was prepared as a suspension in water and applied with a hand-held sprayer (Sure Shot, Milwaukee Sprayer Mfg. Co., Inc., Milwaukee, Wis.) to flowers to the point of drip. Spray was applied to peach trees (Prunus persica L. ‘Redhaven’ on Lovell rootstock) at 60 psi when air temperature was approximately 21° C. with sunny conditions. Naturally-derived eugenol, extracted from cinnamon (Cinnamomum zeylanicum) or clove (Syzgium aromaticum), was obtained from Citrus and Allied (Floral Park, N.Y.). Peach tree flowers were approximately 60% in bloom when eugenol was applied on 14 Apr. 2003. One tree received one application of each concentration of eugenol. One-hundred flowers per tree, uniformly distributed throughout the crown were selected for measurement 24 hr, 1 mo, and 2 mos after application. At 24 hr, flowers with wilted pistils and stamens were considered killed and nonviable. Surviving fruit were counted 1 and 2 mo after application. Peaches were harvested on 7 Aug. 2003 from each treated tree. Total fruit number and weight and size of individual fruit were measured.

[5] = tested on: 'Redhaven' on Lovell peach; test: Peach blossom thinning with different thinning agents, mist blower back pack sprayer, 2004; format: in vivo, Prunus persica
Protocol: In 2004, fewer concentrations of eugenol were tested in comparison with other chemical blossom thinners in apple and peach. […] 2004 with a pressurized power mist blower back pack sprayer. Peach trees had been planted in April 1997 with a 3-m spacing between trees. Treatments included eugenol and Matran® each applied at 1, 2, 4, and 8%. […] Each tree was an experimental unit, buffer trees surrounded each treated tree, and there were 5 replications arranged in a completely randomized design.
Response variables included (1) percent flowers wilted 24 hr after application based on a 100 flower (peach) or flower cluster (apple) sample per tree; (2) number apple fruit retained after June drop from the same 100-flower sample per tree; (3) number and weight of fruit per tree at harvest by size category; (4) visual estimation from two people of foliar and shoot damage. Four branches per tree, each with 25 flowers, were measured; two branches opposite each other were perpendicular to the drive alley and the other two branches were opposite each other and parallel to the drive alley.

C=CCc1ccc(O)c(OC)c1 [Eugenol, 2-methoxy-4-(2-propenyl)phenol]
Fruit (no./tree) ([1]; thinner applied at 4%): 137 no./tree
Fruit weight (kg/tree) ([1]; thinner applied at 4%): 20.5 kg/tree
Individual fruit weight ([1]; thinner applied at 4%): 148 g
Fruit (no./tree) ([1]; thinner applied at 6%): 86 no./tree
Fruit weight (kg/tree) ([1]; thinner applied at 6%): 10.2 kg/tree
Individual fruit weight ([1]; thinner applied at 6%): 129 g
Leaf injury ([1]; in vivo): injury was superficial, did not persist, and was not observed within four weeks of application
Concentration at which flower injury was apparent ([2]; Apple flowers, 2003): 1.5%
Flowers without wilted pistils and stamens 24 hr after application ([2]; 0.5% active ingredient): 100%
Fruit (1 to 2 cm in diameter) one month after application ([2]; 0.5% active ingredient): 18%
Fruit (2 to 4 cm in diameter) two months after application ([2]; 0.5% active ingredient): 16%
Flowers without wilted pistils and stamens 24 hr after application ([2]; 1% active ingredient): 100%
Fruit (1 to 2 cm in diameter) one month after application ([2]; 1% active ingredient): 9%
Fruit (2 to 4 cm in diameter) two months after application ([2]; 1% active ingredient): 17%
Flowers without wilted pistils and stamens 24 hr after application ([2]; 1.5% active ingredient): 93%
Fruit (1 to 2 cm in diameter) one month after application ([2]; 1.5% active ingredient): 10%
Fruit (2 to 4 cm in diameter) two months after application ([2]; 1.5% active ingredient): 12%
Flowers without wilted pistils and stamens 24 hr after application ([2]; 2% active ingredient): 93%
Fruit (1 to 2 cm in diameter) one month after application ([2]; 2% active ingredient): 10%
Fruit (2 to 4 cm in diameter) two months after application ([2]; 2% active ingredient): 10%
Flowers without wilted pistils and stamens 24 hr after application ([2]; 4% active ingredient): 68%
Fruit (1 to 2 cm in diameter) one month after application ([2]; 4% active ingredient): 8%
Fruit (2 to 4 cm in diameter) two months after application ([2]; 4% active ingredient): 6%
Flowers without wilted pistils and stamens 24 hr after application ([2]; 6% active ingredient): 43%
Fruit (1 to 2 cm in diameter) one month after application ([2]; 6% active ingredient): 1%
Fruit (2 to 4 cm in diameter) two months after application ([2]; 6% active ingredient): 2%
Flowers without wilted pistils and stamens 24 hr after application ([2]; 8% active ingredient): 32%
Fruit (1 to 2 cm in diameter) one month after application ([2]; 8% active ingredient): 2%
Fruit (2 to 4 cm in diameter) two months after application ([2]; 8% active ingredient): 2%
Flowers without wilted pistils and stamens 24 hr after application ([2]; 10% active ingredient): 27%
Fruit (1 to 2 cm in diameter) one month after application ([2]; 10% active ingredient): 1%
Fruit (2 to 4 cm in diameter) two months after application ([2]; 10% active ingredient): 0%
Fruit or leaf injury ([2]; in vivo): no fruit or leaf injury
Phytotoxicity by 2 months after application ([2]; in vivo): no sign of eugenol-induced phytotoxicity
Average fruit weight (g) ([3]; rate 2%, 2004): 152 a g
Total yield per tree (no.) ([3]; rate 2%, 2004): 543 a no.
Flower burn back (% of flowers injured) ([3]; rate 2%): 45 a %
Average fruit weight (g) ([3]; rate 4%, 2004): 155 a g
Total yield per tree (no.) ([3]; rate 4%, 2004): 462 a no.
Flower burn back (% of flowers injured) ([3]; rate 4%): 50 a %
Average fruit weight (g) ([3]; rate 6%, 2004): 167 a g
Total yield per tree (no.) ([3]; rate 6%, 2004): 443 a no.
Flower burn back (% of flowers injured) ([3]; rate 6%): 53 a %
Effect on yield ([3]; Apple, 2004): did not affect yield
Concentration at which flower injury was apparent ([4]; Peach flowers, 2003): 1.5%
Fruit (1 to 2 cm in diameter) one month after application ([4]; Peach, 0.5% active ingredient): 64%
Fruit (2 to 4 cm in diameter) two months after application ([4]; Peach, 0.5% active ingredient): 40%
Flowers without wilted pistils and stamens 24 hr after application ([4]; Peach, 0.5% active ingredient): 100%
Fruit (1 to 2 cm in diameter) one month after application ([4]; Peach, 1% active ingredient): 28%
Fruit (2 to 4 cm in diameter) two months after application ([4]; Peach, 1% active ingredient): 16%
Flowers without wilted pistils and stamens 24 hr after application ([4]; Peach, 1% active ingredient): 100%
Fruit (1 to 2 cm in diameter) one month after application ([4]; Peach, 1.5% active ingredient): 36%
Fruit (2 to 4 cm in diameter) two months after application ([4]; Peach, 1.5% active ingredient): 16%
Flowers without wilted pistils and stamens 24 hr after application ([4]; Peach, 1.5% active ingredient): 95%
Fruit (1 to 2 cm in diameter) one month after application ([4]; Peach, 2% active ingredient): 20%
Fruit (2 to 4 cm in diameter) two months after application ([4]; Peach, 2% active ingredient): 6%
Flowers without wilted pistils and stamens 24 hr after application ([4]; Peach, 2% active ingredient): 85%
Fruit (1 to 2 cm in diameter) one month after application ([4]; Peach, 4% active ingredient): 20%
Fruit (2 to 4 cm in diameter) two months after application ([4]; Peach, 4% active ingredient): 5%
Flowers without wilted pistils and stamens 24 hr after application ([4]; Peach, 4% active ingredient): 62%
Fruit (1 to 2 cm in diameter) one month after application ([4]; Peach, 6% active ingredient): 22%
Fruit (2 to 4 cm in diameter) two months after application ([4]; Peach, 6% active ingredient): 5%
Flowers without wilted pistils and stamens 24 hr after application ([4]; Peach, 6% active ingredient): 50%
Fruit (1 to 2 cm in diameter) one month after application ([4]; Peach, 8% active ingredient): 17%
Fruit (2 to 4 cm in diameter) two months after application ([4]; Peach, 8% active ingredient): 3%
Flowers without wilted pistils and stamens 24 hr after application ([4]; Peach, 8% active ingredient): 39%
Fruit (1 to 2 cm in diameter) one month after application ([4]; Peach, 10% active ingredient): 0%
Fruit (2 to 4 cm in diameter) two months after application ([4]; Peach, 10% active ingredient): 5%
Flowers without wilted pistils and stamens 24 hr after application ([4]; Peach, 10% active ingredient): 31%
Time after application until peach flowers began to appear bleached and leaf tips developed necrotic lesions ([4]; Peach, 2003): ≤ 1 h
Fruit or leaf injury ([4]; in vivo): No fruit or leaf injury
Phytotoxicity by 2 months after application ([4]; in vivo): no sign of eugenol-induced phytotoxicity
Rates at which fruit number was reduced [5]; 2004: higher than 2%
Average fruit weight (g) ([5]; rate 1%, 2004): 76 cde g
Total yield per tree (no.) ([5]; rate 1%, 2004): 684 a no.
Flower burn back (% of flowers injured) ([5]; rate 1%, April 2004): 15 b^a %
Average fruit weight (g) ([5]; rate 2%, 2004): 87 bcde g
Total yield per tree (no.) ([5]; rate 2%, 2004): 384 bc no.
Flower burn back (% of flowers injured) ([5]; rate 2%, April 2004): 27 ab %
Flower burn back (% of flowers injured) ([5]; rate 2%, April 2004, listed as eugenol): 27%
Average fruit weight (g) ([5]; rate 4%, 2004): 103 abc g
Total yield per tree (no.) ([5]; rate 4%, 2004): 470 abc no.
Flower burn back (% of flowers injured) ([5]; rate 4%, April 2004): 39 ab %
Flower burn back (% of flowers injured) ([5]; rate 4%, April 2004, listed as eugenol): 49%
Average fruit weight (g) ([5]; rate 8%, 2004): 112 ab g
Total yield per tree (no.) ([5]; rate 8%, 2004): 404 bc no.
Flower burn back (% of flowers injured) ([5]; rate 8%, April 2004): 49 a %
Flower burn back (% of flowers injured) ([5]; rate 8%, April 2004, listed as eugenol): approximately 50%
